Measurements as given in ChEMBL document CHEMBL1154361, “Oxiranylmethyloxy or thiiranylmethyloxy-azaxanthones and -acridone analogues as potential topoisomerase I inhibitors” (Bioorg Med Chem Lett, 2009).
Counter-ions that a name gives are not always drawn.

Columns and labels:
[1] = test system: HeLa; test: Cytotoxicity against human HeLa cells by MTT assay; format: functional, cell-based
[2] = test system: HT-29; test: Cytotoxicity against human HT-29 cells by MTT assay; format: functional, cell-based
[3] = test system: DU-145; test: Cytotoxicity against human DU145 cells by MTT assay; format: functional, cell-based
[4] = test system: MDA-MB-231; test: Cytotoxicity against human MDA-MB-231 cells by MTT assay; format: functional, cell-based
[5] = test system: HL-60; test: Cytotoxicity against human HL60 cells by MTT assay; format: functional, cell-based
[6] = target: T1, DNA topoisomerase 1 (Homo sapiens) (UniProt P11387); test: Inhibition of human topoisomerase 1 at 20 uM
T1 sequence (whole entry): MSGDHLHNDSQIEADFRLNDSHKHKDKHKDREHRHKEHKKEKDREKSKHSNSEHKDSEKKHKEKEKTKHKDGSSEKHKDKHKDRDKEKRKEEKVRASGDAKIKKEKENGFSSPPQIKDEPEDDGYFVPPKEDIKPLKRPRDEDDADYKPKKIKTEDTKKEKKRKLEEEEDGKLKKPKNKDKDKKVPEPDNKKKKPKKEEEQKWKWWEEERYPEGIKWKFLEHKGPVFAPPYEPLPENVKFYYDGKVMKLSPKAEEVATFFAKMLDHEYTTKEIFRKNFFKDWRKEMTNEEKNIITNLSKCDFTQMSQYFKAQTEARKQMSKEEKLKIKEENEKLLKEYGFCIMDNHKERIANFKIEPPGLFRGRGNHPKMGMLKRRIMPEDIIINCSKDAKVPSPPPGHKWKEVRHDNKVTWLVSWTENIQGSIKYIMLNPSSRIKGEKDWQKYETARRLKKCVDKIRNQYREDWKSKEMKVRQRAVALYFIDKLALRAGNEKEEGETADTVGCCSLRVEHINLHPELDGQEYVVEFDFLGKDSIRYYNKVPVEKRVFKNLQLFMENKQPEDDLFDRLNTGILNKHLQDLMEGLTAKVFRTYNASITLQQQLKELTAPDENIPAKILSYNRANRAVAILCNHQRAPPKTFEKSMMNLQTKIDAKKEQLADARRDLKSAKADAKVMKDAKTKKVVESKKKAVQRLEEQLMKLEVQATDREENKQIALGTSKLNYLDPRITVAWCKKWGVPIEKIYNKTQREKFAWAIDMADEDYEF

[7] = target: T1, DNA topoisomerase 1 (Homo sapiens); test: Inhibition of human topoisomerase 1 at 100 uM
[8] = target: DNA topoisomerase 2-alpha (Homo sapiens) (UniProt P11388); test: Inhibition of human topoisomerase 2 at 20 uM
Chain of DNA topoisomerase 2-alpha (Homo sapiens) (P11388 whole entry): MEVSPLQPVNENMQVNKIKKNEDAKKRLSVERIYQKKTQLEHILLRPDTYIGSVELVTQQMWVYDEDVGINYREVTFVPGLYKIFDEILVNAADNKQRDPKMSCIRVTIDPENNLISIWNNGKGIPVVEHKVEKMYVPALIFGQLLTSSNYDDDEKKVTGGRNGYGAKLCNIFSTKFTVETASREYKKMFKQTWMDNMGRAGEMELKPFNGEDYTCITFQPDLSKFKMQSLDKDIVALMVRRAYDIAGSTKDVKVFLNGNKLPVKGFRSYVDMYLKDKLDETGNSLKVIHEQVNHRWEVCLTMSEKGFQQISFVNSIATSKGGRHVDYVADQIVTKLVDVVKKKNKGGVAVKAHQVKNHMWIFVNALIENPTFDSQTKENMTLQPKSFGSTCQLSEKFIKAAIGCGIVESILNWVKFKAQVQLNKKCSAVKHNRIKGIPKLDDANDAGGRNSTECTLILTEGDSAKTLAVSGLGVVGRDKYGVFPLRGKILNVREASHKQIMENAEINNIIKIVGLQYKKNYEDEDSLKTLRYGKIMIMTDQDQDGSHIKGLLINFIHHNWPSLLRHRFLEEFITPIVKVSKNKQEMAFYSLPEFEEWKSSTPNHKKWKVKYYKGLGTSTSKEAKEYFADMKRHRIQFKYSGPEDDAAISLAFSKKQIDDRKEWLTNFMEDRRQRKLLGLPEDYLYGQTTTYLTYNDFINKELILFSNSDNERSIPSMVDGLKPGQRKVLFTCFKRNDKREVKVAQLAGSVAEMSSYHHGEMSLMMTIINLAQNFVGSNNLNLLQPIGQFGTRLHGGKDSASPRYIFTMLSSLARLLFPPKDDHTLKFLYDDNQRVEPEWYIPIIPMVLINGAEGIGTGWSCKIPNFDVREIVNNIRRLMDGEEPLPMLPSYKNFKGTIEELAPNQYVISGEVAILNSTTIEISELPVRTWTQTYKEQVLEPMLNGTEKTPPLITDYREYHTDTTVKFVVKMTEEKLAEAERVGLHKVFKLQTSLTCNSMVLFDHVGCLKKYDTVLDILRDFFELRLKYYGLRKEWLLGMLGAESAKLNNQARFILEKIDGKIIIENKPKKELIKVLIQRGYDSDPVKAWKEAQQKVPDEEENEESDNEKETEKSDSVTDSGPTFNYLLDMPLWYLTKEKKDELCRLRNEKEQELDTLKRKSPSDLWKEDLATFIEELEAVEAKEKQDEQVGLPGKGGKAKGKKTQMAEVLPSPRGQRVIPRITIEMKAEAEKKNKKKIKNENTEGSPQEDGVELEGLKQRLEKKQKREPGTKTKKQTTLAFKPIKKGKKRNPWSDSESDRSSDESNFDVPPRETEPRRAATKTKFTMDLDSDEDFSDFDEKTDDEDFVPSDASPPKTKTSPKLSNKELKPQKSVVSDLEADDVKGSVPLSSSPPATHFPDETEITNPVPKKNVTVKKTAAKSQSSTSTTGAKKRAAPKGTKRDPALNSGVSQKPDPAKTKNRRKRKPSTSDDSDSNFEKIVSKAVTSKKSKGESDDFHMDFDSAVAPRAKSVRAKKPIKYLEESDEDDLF

[9] = target: DNA topoisomerase 2-alpha (Homo sapiens) (UniProt P11388); test: Inhibition of human topoisomerase 2 at 100 uM

With `O=c1c2ccccc2[nH]c2cc(OCC3CS3)cc(OCC3CS3)c12` (centres undefined) the IC50 [1] was 11.1 µM, the IC50 [2] was 23.2 µM and the IC50 [3] was 23.2 µM. It also gave an IC50 [4] of 8.02 µM, an IC50 [5] of 7.73 µM and an inhibition [6] of 0%. For the same compound, the inhibition [7] was 0%, the inhibition [8] was 8.5% and the inhibition [9] was 6.9%.

`O=c1c2ccccc2[nH]c2cc(OCC3CS3)cc(O)c12` (centres undefined) gave an IC50 [1] greater than 50 µM, an IC50 [2] of 33 µM and an IC50 [3] of 23 µM. It also gave an IC50 [4] of 21.4 µM, an IC50 [5] of 23 µM and an inhibition [6] of 0%. The inhibition [7] was 2.3%, the inhibition [8] was 8.1% and the inhibition [9] was 8.7%.

Work on `O=c1c2ccccc2[nH]c2cc(OCC3CO3)cc(OCC3CO3)c12` (centres undefined) yielded an IC50 [1] greater than 50 µM, an IC50 [2] of 29.3 µM and an IC50 [3] of 30.9 µM. The IC50 [4] was 28.9 µM, the IC50 [5] was 22 µM and the inhibition [6] was 2.5%. It also gave an inhibition [7] of 0%, an inhibition [8] of 8.7% and an inhibition [9] of 13.2%.

Work on `COc1cccc2c1C(=O)c1c(O)c3c(c(O)c1C2=O)C[C@@](O)(C(=O)CO)C[C@@H]3O[C@H]1C[C@H](N)[C@H](O)[C@H](C)O1` [DOXORUBICIN HYDROCHLORIDE] yielded an IC50 [1] of 1.08 µM, an IC50 [2] of 3.9 µM and an IC50 [3] of 2.54 µM. The IC50 [4] was 1.67 µM and the IC50 [5] was 0.88 µM.

Work on `O=c1c2cccnc2oc2cc(OCC3CS3)cc(O)c12` (centres undefined) yielded an IC50 [1] of 6.9 µM, an IC50 [2] greater than 50 µM and an IC50 [3] of 15.8 µM. It also gave an IC50 [4] of 18.2 µM, an IC50 [5] of 20.1 µM and an inhibition [6] of 26.7%. For the same compound, the inhibition [7] was 50.3%, the inhibition [8] was 9.2% and the inhibition [9] was 19.5%.

`CC[C@@]1(O)C(=O)OCc2c1cc1n(c2=O)Cc2cc3ccccc3nc2-1` [CAMPTOTHECIN] was tested, and the IC50 [1] was 0.58 µM, the IC50 [2] was 1.07 µM and the IC50 [3] was 1 µM. For the same compound, the IC50 [4] was 0.68 µM and the IC50 [5] was 0.067 µM.

Work on `O=c1c2ccccc2[nH]c2cc(OCC3CO3)cc(O)c12` (centres undefined) yielded an IC50 [1] greater than 50 µM, an IC50 [2] greater than 50 µM and an IC50 [3] greater than 50 µM. The IC50 [4] was 18.6 µM, the IC50 [5] was 12.5 µM and the inhibition [6] was 10.8%. It also gave an inhibition [7] of 9.1%, an inhibition [8] of 12.9% and an inhibition [9] of 18.1%.

In the case of `COc1cc([C@@H]2c3cc4c(cc3[C@@H](O[C@@H]3O[C@@H]5CO[C@@H](C)O[C@H]5[C@H](O)[C@H]3O)[C@H]3COC(=O)[C@H]23)OCO4)cc(OC)c1O` [ETOPOSIDE], the IC50 [1] is reported as 2.15 µM, the IC50 [2] is reported as 6.32 µM and the IC50 [3] is reported as 5.16 µM. For the same compound, the IC50 [4] was 3.5 µM, the IC50 [5] was 0.93 µM and the inhibition [8] was 13.4%.

With `O=c1c2cccnc2oc2cc(OCC3CS3)cc(OCC3CS3)c12` (centres undefined) the IC50 [1] was 9.96 µM, the IC50 [2] was greater than 50 µM and the IC50 [3] was 21 µM. The IC50 [4] was 13 µM, the IC50 [5] was 10.5 µM and the inhibition [6] was 5.2%. For the same compound, the inhibition [7] was 0%, the inhibition [8] was 8.6% and the inhibition [9] was 6.7%.

In the case of `O=c1c2cccnc2oc2cc(OCC3CO3)cc(O)c12` (centres undefined), the IC50 [1] is reported as 22.1 µM, the IC50 [2] is reported as 26.3 µM and the IC50 [3] is reported as 8.11 µM. It also gave an IC50 [4] of 24.3 µM, an IC50 [5] of 24.8 µM and an inhibition [6] of 1.8%. It also gave an inhibition [7] of 0%, an inhibition [8] of 8.3% and an inhibition [9] of 30.3%.
